We go through seven cell lines from the supplement of paper PMC10307832.

Common to all, as to test: relative viability (nuclei count vs DMSO), 5 days (fraction); higher = more cells survive
Compound in test [1]: CC1CC(=O)N(C2=CN=C(N=C2N1C3CCCC3)NC4=C(C=C(C=C4)C(=O)NC5CCN(CC5)C)OC)C [NPK76-II-72-1] + COc1cc2c(Oc3ccc(NC(=O)C4(C(=O)Nc5ccc(F)cc5)CC4)cc3F)ccnc2cc1OCCCN1CCOCC1 [Foretinib] (partner 0.25 µM)
The gist of the method: (§1)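 Lung cancer cell lines in 1536-well plates got either a single drug or a fixed anchor-drug dose together with five library-drug doses (not always all listed) in √10 steps, by pin tool, on the day after seeding. Nuclei were counted after 5 days, and relative viability is the treated-to-vehicle ratio of nuclei counts. Values are medians of duplicate plates.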

Compound in test [2]: CC1CC(=O)N(C2=CN=C(N=C2N1C3CCCC3)NC4=C(C=C(C=C4)C(=O)NC5CCN(CC5)C)OC)C [NPK76-II-72-1] + CS(=O)(=O)N1CCN(Cc2cc3nc(-c4cccc5[nH]ncc45)nc(N4CCOCC4)c3s2)CC1 [Pictilisib] (partner 1 µM)
The gist of the method: as §1

Compound in test [3]: CC[C@@H]1C(=O)N(C)c2cnc(Nc3ccc(C(=O)NC4CCN(C)CC4)cc3OC)nc2N1C1CCCC1 [BI-2536] + Cc1cc(Nc2cc(N3CCN(C)CC3)nc(Sc3ccc(NC(=O)C4CC4)cc3)n2)n[nH]1 [Tozasertib] (partner 0.1 µM)
The gist of the method: as §1

Compound in test [4]: CC[C@@H]1C(=O)N(C)c2cnc(Nc3ccc(C(=O)NC4CCN(C)CC4)cc3OC)nc2N1C1CCCC1 [BI-2536] + O=C(c1cc(Cc2n[nH]c(=O)c3ccccc23)ccc1F)N1CCN(C(=O)C2CC2)CC1 [Olaparib] (partner 8 µM)
The gist of the method: as §1

Regarding NCI-H2405, the relative viability in test [1] (first compound 0.01 µM) is 1.05; in test [1] (first compound 0.03162 µM), 1.08; in test [1] (first compound 0.1 µM), 0.999; in test [1] (first compound 0.3162 µM) it was 1.03; in test [1] (first compound 1 µM), 1.17; in test [2] (first compound 0.01 µM) it was 0.485. The relative viability was 0.467 in test [2] (first compound 0.03162 µM); 0.479 in test [2] (first compound 0.1 µM); 0.453 in test [2] (first compound 0.3162 µM); 0.452 in test [2] (first compound 1 µM); 0.73 in test [3] (first compound 0.01 µM); 0.566 in test [3] (first compound 0.03162 µM). In addition, the relative viability is 0.381 in test [3] (first compound 0.1 µM); 0.296 in test [3] (first compound 0.3162 µM); 0.33 in test [3] (first compound 1 µM); 0.855 in test [4] (first compound 0.01 µM); 0.547 in test [4] (first compound 0.03162 µM); 0.325 in test [4] (first compound 0.1 µM). For the same cell line, the relative viability was determined as 0.281 in test [4] (first compound 0.3162 µM) and 0.416 in test [4] (first compound 1 µM).
NCI-H322M: the relative viability in test [1] (first compound 0.01 µM) was found to be 1.06; in test [1] (first compound 0.03162 µM), 1.09; in test [1] (first compound 0.1 µM), 0.976; in test [1] (first compound 0.3162 µM), 0.923; in test [1] (first compound 1 µM) it was 0.978; in test [2] (first compound 0.01 µM) it was 0.45. The relative viability in test [2] (first compound 0.03162 µM) stood at 0.573; in test [2] (first compound 0.1 µM), 0.513; in test [2] (first compound 0.3162 µM), 0.576; in test [2] (first compound 1 µM), 0.513; in test [3] (first compound 0.01 µM), 0.517; in test [3] (first compound 0.03162 µM), 0.451. Moreover, the relative viability is 0.571 in test [3] (first compound 0.1 µM); 0.445 in test [3] (first compound 0.3162 µM); 0.377 in test [3] (first compound 1 µM); 0.74 in test [4] (first compound 0.01 µM); 0.692 in test [4] (first compound 0.03162 µM); 0.637 in test [4] (first compound 0.1 µM). The relative viability in test [4] (first compound 0.3162 µM) was determined as 0.442; in test [4] (first compound 1 µM) it was 0.393.
As to NCI-H2170, the relative viability was 0.909 in test [1] (first compound 0.01 µM); 0.975 in test [1] (first compound 0.03162 µM); 1.01 in test [1] (first compound 0.1 µM); 0.885 in test [1] (first compound 0.3162 µM); 1.06 in test [1] (first compound 1 µM); 0.281 in test [2] (first compound 0.01 µM). Besides, the relative viability in test [2] (first compound 0.03162 µM) turned out to be 0.357; in test [2] (first compound 0.1 µM) it was 0.279; in test [2] (first compound 1 µM) it was 0.333; in test [3] (first compound 0.01 µM), 0.713; in test [3] (first compound 0.03162 µM) it was 0.89; in test [3] (first compound 0.1 µM), 0.593. Besides, the relative viability was 0.177 in test [3] (first compound 0.3162 µM); 0.249 in test [3] (first compound 1 µM); 0.597 in test [4] (first compound 0.01 µM); 0.525 in test [4] (first compound 0.03162 µM); 0.39 in test [4] (first compound 0.1 µM); 0.164 in test [4] (first compound 0.3162 µM). In test [4] (first compound 1 µM), the relative viability is 0.145.
With NCI-H1395, the relative viability amounted to 1.02 in test [1] (first compound 0.01 µM); 0.959 in test [1] (first compound 0.03162 µM); 0.954 in test [1] (first compound 0.1 µM); 1.1 in test [1] (first compound 0.3162 µM); 0.95 in test [1] (first compound 1 µM); 0.615 in test [2] (first compound 0.01 µM). The relative viability turned out to be 0.645 in test [2] (first compound 0.03162 µM); 0.627 in test [2] (first compound 0.1 µM); 0.632 in test [2] (first compound 0.3162 µM); 0.628 in test [2] (first compound 1 µM); 0.668 in test [3] (first compound 0.01 µM); 0.729 in test [3] (first compound 0.03162 µM). Besides, the relative viability in test [3] (first compound 0.1 µM) was determined as 0.642; in test [3] (first compound 0.3162 µM), 0.399; in test [3] (first compound 1 µM), 0.285; in test [4] (first compound 0.01 µM), 0.4; in test [4] (first compound 0.03162 µM), 0.396; in test [4] (first compound 0.1 µM), 0.329. In addition, the relative viability was 0.364 in test [4] (first compound 0.3162 µM) and 0.355 in test [4] (first compound 1 µM).
Regarding NCI-H358, the relative viability in test [1] (first compound 0.01 µM) is 0.575; in test [1] (first compound 0.03162 µM) it was 0.695; in test [1] (first compound 0.1 µM), 0.915; in test [1] (first compound 1 µM) it was 0.769; in test [2] (first compound 0.01 µM), 0.352; in test [2] (first compound 0.03162 µM) it was 0.364. Also, the relative viability came to 0.334 in test [2] (first compound 0.1 µM); 0.3 in test [2] (first compound 0.3162 µM); 0.332 in test [2] (first compound 1 µM); 0.113 in test [3] (first compound 0.01 µM); 0.105 in test [3] (first compound 0.03162 µM); 0.103 in test [3] (first compound 0.1 µM). Also, the relative viability in test [3] (first compound 0.3162 µM) was 0.0917; in test [3] (first compound 1 µM) it was 0.0924; in test [4] (first compound 0.01 µM) it was 0.559; in test [4] (first compound 0.03162 µM) it was 0.247; in test [4] (first compound 0.1 µM) it was 0.0974; in test [4] (first compound 0.3162 µM), 0.0882. Moreover, in test [4] (first compound 1 µM), the relative viability stood at 0.0802.
Regarding NCI-H838, the relative viability in test [1] (first compound 0.01 µM) is 0.956; in test [1] (first compound 0.03162 µM), 0.99; in test [1] (first compound 0.1 µM), 1.1; in test [1] (first compound 0.3162 µM) it was 0.949; in test [1] (first compound 1 µM), 1.09; in test [2] (first compound 0.01 µM), 0.37. In addition, the relative viability in test [2] (first compound 0.03162 µM) was found to be 0.481; in test [2] (first compound 0.1 µM) it was 0.47; in test [2] (first compound 0.3162 µM), 0.435; in test [2] (first compound 1 µM) it was 0.432; in test [3] (first compound 0.01 µM), 0.239; in test [3] (first compound 0.03162 µM), 0.269. The relative viability in test [3] (first compound 0.1 µM) came out at 0.241; in test [3] (first compound 0.3162 µM), 0.229; in test [3] (first compound 1 µM), 0.225; in test [4] (first compound 0.01 µM), 0.731; in test [4] (first compound 0.03162 µM), 0.638; in test [4] (first compound 0.1 µM), 0.368. Moreover, the relative viability is 0.0986 in test [4] (first compound 0.3162 µM) and 0.0726 in test [4] (first compound 1 µM).
With CAL-12T, the relative viability came out at 1.11 in test [1] (first compound 0.01 µM); 1.18 in test [1] (first compound 0.03162 µM); 1.03 in test [1] (first compound 0.1 µM); 1.1 in test [1] (first compound 0.3162 µM); 1.3 in test [1] (first compound 1 µM); 0.448 in test [2] (first compound 0.01 µM). Further, the relative viability in test [2] (first compound 0.03162 µM) turned out to be 0.39; in test [2] (first compound 0.1 µM), 0.42; in test [2] (first compound 1 µM), 0.453; in test [3] (first compound 0.01 µM), 0.291; in test [3] (first compound 0.03162 µM) it was 0.294; in test [3] (first compound 0.1 µM) it was 0.2. Besides, the relative viability in test [3] (first compound 0.3162 µM) was 0.194; in test [3] (first compound 1 µM), 0.186; in test [4] (first compound 0.01 µM) it was 0.682; in test [4] (first compound 0.03162 µM), 0.596; in test [4] (first compound 0.1 µM), 0.493; in test [4] (first compound 0.3162 µM), 0.167. For the same cell line, the relative viability in test [4] (first compound 1 µM) came to 0.19.
